Assay results reported in PubChem BioAssay (NCI).
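Interpolation was linear, between the two tested concentrations surrounding the appropriate level; five concentrations were tested over 48 hours in 96-well plates. GI50: concentration for 50% inhibition of growth. TGI is the concentration that stops growth completely.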

Experiments:
Test in all cases: NCI anticancer screen, dose series, 48 h
HOP-92 NSCLC = test system: HOP-92 NSCLC
U251 CNS = test system: U251 CNS
CCRF-CEM leukemia = test system: CCRF-CEM leukemia
LOX IMVI melanoma = test system: LOX IMVI melanoma
IGROV1 ovarian = test system: IGROV1 ovarian
K-562 leukemia = test system: K-562 leukemia
CAKI-1 renal = test system: CAKI-1 renal
M14 melanoma = test system: M14 melanoma
SN12C renal = test system: SN12C renal
UACC-62 melanoma = test system: UACC-62 melanoma
MOLT-4 leukemia = test system: MOLT-4 leukemia
HL-60(TB) leukemia = test system: HL-60(TB) leukemia
RXF 393 renal = test system: RXF 393 renal
COLO 205 colon = test system: COLO 205 colon
DU-145 prostate = test system: DU-145 prostate
SW-620 colon = test system: SW-620 colon
MCF7 breast = test system: MCF7 breast
SF-295 CNS = test system: SF-295 CNS
T-47D breast = test system: T-47D breast
NCI-H522 lung = test system: NCI-H522 lung
SF-539 CNS = test system: SF-539 CNS
MALME-3M melanoma = test system: MALME-3M melanoma
HCT-15 colon = test system: HCT-15 colon
OVCAR-3 ovarian = test system: OVCAR-3 ovarian
HT29 colon = test system: HT29 colon
KM12 colon = test system: KM12 colon
A498 renal = test system: A498 renal
SK-MEL-28 melanoma = test system: SK-MEL-28 melanoma
TK-10 renal = test system: TK-10 renal

CCCCC#Cc1c(I)n(C2OC(CO[Si](C)(C)C(C)(C)C)C3OC(C)(C)OC32)c(=O)n(C(=O)c2ccccc2)c1=O (configuration not stated) was tested, and the TGI (HOP-92 NSCLC) was 13.5 µM, the GI50 (U251 CNS) was 3.25 µM and the TGI (U251 CNS) was greater than 100 µM. It also gave a GI50 (CCRF-CEM leukemia) of 13.4 µM, a TGI (CCRF-CEM leukemia) of 33.4 µM and a GI50 (LOX IMVI melanoma) of 5.54 µM. It also gave a TGI (LOX IMVI melanoma) of 38.5 µM, a GI50 (IGROV1 ovarian) of 3.96 µM and a TGI (IGROV1 ovarian) of 13.4 µM. It also gave a GI50 (K-562 leukemia) of 15 µM, a TGI (K-562 leukemia) of 36.2 µM and a GI50 (CAKI-1 renal) of 3.67 µM. The TGI (CAKI-1 renal) was 18.4 µM, the GI50 (M14 melanoma) was 1.6 µM and the TGI (M14 melanoma) was 3.3 µM. For the same molecule, the GI50 (SN12C renal) was 19.3 µM, the TGI (SN12C renal) was 45.4 µM and the GI50 (UACC-62 melanoma) was 17.7 µM. For the same molecule, the TGI (UACC-62 melanoma) was 32.2 µM, the GI50 (MOLT-4 leukemia) was 5.79 µM and the TGI (MOLT-4 leukemia) was 23.6 µM. For the same molecule, the GI50 (HL-60(TB) leukemia) was 10.1 µM, the TGI (HL-60(TB) leukemia) was 28.6 µM and the GI50 (RXF 393 renal) was 11 µM. The TGI (RXF 393 renal) was 23.9 µM, the GI50 (COLO 205 colon) was 1.59 µM and the TGI (COLO 205 colon) was 3.14 µM. For the same molecule, the GI50 (DU-145 prostate) was 2.25 µM, the TGI (DU-145 prostate) was 4.68 µM and the GI50 (SW-620 colon) was 2.33 µM. For the same molecule, the TGI (SW-620 colon) was 6.03 µM, the GI50 (MCF7 breast) was 2.14 µM and the TGI (MCF7 breast) was 5.59 µM. For the same molecule, the GI50 (SF-295 CNS) was 12.7 µM, the TGI (SF-295 CNS) was 27.3 µM and the GI50 (T-47D breast) was 4.14 µM. The TGI (T-47D breast) was 19.7 µM, the GI50 (NCI-H522 lung) was 1.84 µM and the TGI (NCI-H522 lung) was 3.93 µM. It also gave a GI50 (SF-539 CNS) of 3.54 µM, a TGI (SF-539 CNS) of 12.8 µM and a GI50 (MALME-3M melanoma) of 2.5 µM. The TGI (MALME-3M melanoma) was 4.91 µM, the GI50 (HCT-15 colon) was 1.63 µM and the TGI (HCT-15 colon) was greater than 100 µM. For the same molecule, the GI50 (OVCAR-3 ovarian) was 1.47 µM, the TGI (OVCAR-3 ovarian) was 2.82 µM and the GI50 (HT29 colon) was 28.4 µM. It also gave a TGI (HT29 colon) greater than 100 µM, a GI50 (KM12 colon) of 1.5 µM and a TGI (KM12 colon) of 3.05 µM. For the same molecule, the GI50 (A498 renal) was 30.9 µM, the TGI (A498 renal) was 98.3 µM and the GI50 (SK-MEL-28 melanoma) was 6.94 µM. The TGI (SK-MEL-28 melanoma) was 22.5 µM, the GI50 (TK-10 renal) was 1.78 µM and the TGI (TK-10 renal) was 3.19 µM.
